The test concerns the target human BLT1 receptor (Homo sapiens (Human), UniProt Q15722). In words: BLT-1 cAMP Assay. The test is classed as cell-based. To be noted: antagonist mode; HEK293 cells recombinantly expressing human BLT1 receptor; forskolin 4 μM and LTB4 2 nM; cAMP detection. The protocol: The ability of compounds to antagonize the human BLT1 receptor was determined using a kit to measure changes in intracellular cyclic AMP levels (cAMP dynamic assay kit, Cisbio Cat. No. 62AM4PEC). HEK293 cells recombinantly expressing human BLT1 receptor, previously frozen in Recovery Medium (Life Technologies, Cat. No. 12648-010) were thawed and diluted into assay medium (HBSS (Hyclone SH 30268.01), 20 mM HEPES (Gibco 15630-106), 800 μM IBMX (Sigma I5879), 0.1% DTPA BSA (Perkin Elmer CR84-100)). The cell suspension was centrifuged at 200×g for 10 min and then resuspended in fresh assay medium to a density of 2.5×10^5 cells/mL. A Labcyte Echo 550 acoustic dispenser was used to transfer 25 nL of test compound dissolved in DMSO into the wells of a dry 384-well plate (Greiner 784075). All subsequent liquid additions were performed using a BIORAPTR (FRD; Beckman Coulter). Next, 5 μL of cell suspension was added and incubated for 20 min. at 37° C. and 5% CO2 in a humidified plastic tray. To test for agonist activity […] of assay buffer containing forskolin (Sigma F-6886. 4 μM for BLT1) was added and incubated for 30 minutes at 37° C. and 5% CO2 in a humidified plastic tray. To test for antagonist activity 5 μL of assay buffer containing forskolin (Sigma F-6886. 4 μM for BLT1) and either LTB4 (Sigma Aldrich L0517; 2 nM BLT1) was added and incubated for 30 minutes at 37° C. and 5% CO2 in a humidified plastic tray.
The levels of cAMP were detected using the CisBio kit following the manufacturer's instructions: cAMP-d2 vial was reconstituted with distilled water and then diluted accordingly with conjugate & lysis buffer. 5 μL of cAMP-d2 working solution was added to all of the wells of the assay plate. cAMP-Cryptate vial was reconstituted with distilled water and then diluted accordingly with conjugate & lysis buffer. 5 μL of cAMP-Cryptate working solution were added to the assay plate. The assay plate was shaken for 3 minutes and incubated at room temperature for 45 minutes, then read on Perkin Elmer Envision. cAMP standard curve and fit data were plotted using a 4 parameter dose response curve fitting algorithm to fit curve. A 4-parameter curve fit (Max, min, log EC50 and slope) was used to transform fluorescent 665 nm/615 nm ratio signal to cAMP concentration. After normalization to treated and untreated controls, the percent effect of signal at each compound concentration was calculated. The plot of percent effect versus the log of compound concentration was fit with a 4-parameter concentration response equation to calculate EC50 values. Compound concentrations tested were 10 000, 3 333, 1 111, 370.4, 123.4, 41.2, 13.7, 4.6, 1.5 and 0.5 nM with 0.25% residual DMSO.

Among the data in patent US10336733B2, “Aryl acylsulfonamides as BLT1 antagonists” (Merck Sharp & Dohme Corp., priority 2015, dated 2019) are EC50 values, retold here.

Sequence of human BLT1 receptor (Q15722 whole entry): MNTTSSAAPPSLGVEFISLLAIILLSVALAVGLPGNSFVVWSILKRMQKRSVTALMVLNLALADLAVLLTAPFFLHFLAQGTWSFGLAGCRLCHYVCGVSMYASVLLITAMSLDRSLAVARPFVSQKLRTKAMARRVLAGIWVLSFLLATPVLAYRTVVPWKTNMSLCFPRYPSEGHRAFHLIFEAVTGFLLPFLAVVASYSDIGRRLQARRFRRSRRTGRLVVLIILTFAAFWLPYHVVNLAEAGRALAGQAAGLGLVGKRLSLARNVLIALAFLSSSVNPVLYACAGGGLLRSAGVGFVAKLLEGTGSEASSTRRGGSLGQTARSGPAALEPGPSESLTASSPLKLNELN

A word on the EC50: it is the concentration needed to bring the measured effect to its halfway point. Regarding `O=C(NS(=O)(=O)C(F)(F)F)c1ccc(F)cc1-c1ccc2c(c1)OC[C@@H](Cc1ccccn1)[C@@H]2O` (single isomer, unassigned) [Example 1, 4-Fluoro-2-((3R,4S or 3S,4R)-4-hydroxy-3-(pyridin-2-ylmethyl)chroman-7-yl)-N-((trifluoromethyl)sulfonyl)benzamide], the EC50 stood at 650 nM.
